Several values for one entry are separate records, joined by “and”; a condition that tells them apart may be missing. Identical values can stand only once.
Test system: influenza viruses
Set-up: species or system human (pediatric influenza patients)
Conditions: human, in vivo

Row | SMILES | Virus isolation rate from specimens
1 | CCOC(=O)C1=C[C@@H](OC(CC)CC)[C@H](NC(C)=O)[C@@H](N)C1 [oseltamivir] | 68% and 69%
2 | CC(=O)N[C@H]1[C@H]([C@H](O)[C@H](O)CO)OC(C(=O)O)=C[C@@H]1N=C(N)N [zanamivir] | 50% and 39%
